Measurements reported in patent publication US20230131899A1, “INHIBITORS OF MICROBIALLY INDUCED AMYLOID” (Axial Therapeutics, Inc., priority 2020, published 2023).
Read-outs that look alike come from different tables or passages of the source.

Tests used:
[1] = tested on: CsgA gene expression (csgBAC promoter-GFP reporter) in E. coli UTI89; assay: In vitro live cell fluorescent reporter assay of CsgA transcription (Reporter Assay); type: cell-based; conditions: Escherichia coli
Procedure, shortened: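 Chromosomal single-copy csgBAC promoter–GFP reporter in E. coli UTI89, started at OD600 0.003 in YESCA broth with compound (0.14–100 μM, 1% DMSO), 20 h at 27 °C. GFP (ex 485/em 525 nm) background-subtracted and normalized to vehicle; IC50 and X[50] from curve fits. OD600 tracked growth effects.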

E. coli CsgA = biological target: T1, E. coli CsgA (Escherichia coli, UniProt P28307); assay: In vitro ThioflavinT assay of CsgA aggregation (CsgA ThT Assay); type: biochemical; conditions: for remaining activity at 25 µM: compound 25 μM; for remaining activity at 100 µM: compound 100 μM
T1 construct: made in house; host or cells: E. coli NEB 3016 slyD::kan, pET11d
T1 sequence (P28307 23-151): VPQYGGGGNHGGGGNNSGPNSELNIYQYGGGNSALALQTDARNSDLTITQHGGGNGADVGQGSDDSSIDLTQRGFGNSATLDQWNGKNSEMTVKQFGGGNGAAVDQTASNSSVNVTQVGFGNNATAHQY
Procedure, shortened: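 Purified C-terminal His-tagged CsgA, monomerised by desalting and 30-kDa filtration, at 2-20 μM with 20-40 μM ThT in 50 mM potassium phosphate pH 7.3, 1% DMSO, compounds 3.125-200 uM; room temperature, fluorescence (ex 438/em 495 nm) read every 15 min. Background-subtracted signal expressed as percent inhibition versus vehicle at 6-6.5 or 8-9 h, or as percent control AUC.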

[2] = read-out: Reporter Assay Abs IC50 (activity range), median Abs IC50 in the CsgA reporter assay, class symbol
[3] = read-out: Reporter Assay Abs IC50 (μM), median Abs IC50 in the CsgA reporter assay, N/A = maximum expression reduction is <50% of control
[4] = read-out: CsgA ThT Assay (10 μM CsgA) % Control AUC at 1005 minutes, 25 μM (activity range), CsgA 10 μM, black plates, 1005 minutes, class symbol
[5] = read-out: CsgA ThT Assay (10 μM CsgA) % Control AUC at 1005 minutes, 25 μM, mean AUC as % of DMSO control, CsgA 10 μM, black plates, 1005 minutes
[6] = read-out: CsgA ThT Assay (10 μM CsgA) % Control AUC at 1005 minutes, 100 μM (activity range), CsgA 10 μM, black plates, 1005 minutes, class symbol
[7] = read-out: CsgA ThT Assay (10 μM CsgA) % Control AUC at 1005 minutes, 100 μM, mean AUC as % of DMSO control, CsgA 10 μM, black plates, 1005 minutes
[8] = read-out: Reporter Assay Abs IC50, activity range, class symbol
[9] = read-out: CsgA ThT Assay (2 μM CsgA) % Control Bmax 25 μM, activity range, class symbol, CsgA 2 μM, white plates
[10] = read-out: CsgA ThT Assay (2 μM CsgA) % Control Bmax 25 μM, mean Bmax as percentage of DMSO control, CsgA 2 μM, white plates
[11] = read-out: CsgA ThT Assay (2 μM CsgA) % Control Bmax 100 μM, activity range, class symbol, CsgA 2 μM, white plates
[12] = read-out: CsgA ThT Assay (2 μM CsgA) % Control Bmax 100 μM, mean Bmax as percentage of DMSO control, CsgA 2 μM, white plates

Compound	IC50 [1, 2]	IC50 [1, 3]	remaining activity at 25 µM (E. coli CsgA; [4])	remaining activity at 25 µM (E. coli CsgA; [5])	remaining activity at 100 µM (E. coli CsgA; [6])	remaining activity at 100 µM (E. coli CsgA; [7])	IC50 [1, 8]	remaining activity at 25 µM (E. coli CsgA; [9])	remaining activity at 25 µM (E. coli CsgA; [10])	remaining activity at 100 µM (E. coli CsgA; [11])	remaining activity at 100 µM (E. coli CsgA; [12])
C/C=C\c1c(Cc2cccc3ccccc23)c(-c2cccc(C(F)(F)F)c2)c2n(c1=O)C(C(=O)O)CN(C)S2(=O)=O (stereo not shown) [Compound 087, (Z)-2-methyl-8-(naphthalen-1-ylmethyl)-6-oxo-7-(prop-1-en-1-yl)-9-(3-(trifluoromethyl)phenyl)-3,4-dihydro-2H,6H-pyrido[1,2-e][1,2,5]thiadiazine-4-carboxylic acid 1,1-dioxide]	4.6 to 10 µM	6 µM	11 to 31%	30%	11 to 31%	15%					
CC(C)(C)c1cccc(Cc2c(-c3cccc(C(F)(F)F)c3)c3n(c(=O)c2Cl)C(C(=O)O)CN3Cc2ccccc2)c1 (stereo not shown) [Compound 215, 1-benzyl-7-(3-(tert-butyl)benzyl)-6-chloro-5-oxo-8-(3-(trifluoromethyl)phenyl)-1,2,3,5-tetrahydroimidazo[1,2-a]pyridine-3-carboxylic acid]		1.3 µM					1.3 to 4.5 µM	> 60%	97%	> 60%	61%
O=C(O)C1CN(C2CCCC2)S(=O)(=O)c2c(-c3cccc(C(F)(F)F)c3)c(Cc3cccc4ccccc34)c(NC3CCCC3)c(=O)n21 (stereo not shown) [Compound 150, 2-cyclopentyl-7-(cyclopentylamino)-8-(naphthalen-1-ylmethyl)-6-oxo-9-(3-(trifluoromethyl)phenyl)-3,4-dihydro-2H,6H-pyrido[1,2-e][1,2,5]thiadiazine-4-carboxylic acid 1,1-dioxide]		4.2 µM					1.3 to 4.5 µM	> 60%	78%	> 60%	199%
CCc1c(Cc2cccc3ccccc23)c(-c2cccc(C(F)(F)F)c2)c2n(c1=O)C(C(=O)O)CN(C(C)C)S2(=O)=O (stereo not shown) [Compound 115, 7-ethyl-2-isopropyl-8-(naphthalen-1-ylmethyl)-6-oxo-9-(3-(trifluoromethyl)phenyl)-3,4-dihydro-2H,6H-pyrido[1,2-e][1,2,5]thiadiazine-4-carboxylic acid 1,1-dioxide]	4.6 to 10 µM	7.2 µM	31 to 60%	35%	11 to 31%	23%					
O=C(O)C1CNc2c(-c3cccc(C(F)(F)F)c3)c(Cc3cccc4ccccc34)c(Br)c(=O)n21 (stereo not shown) [Compound 133, 6-bromo-7-(naphthalen-1-ylmethyl)-5-oxo-8-(3-(trifluoromethyl)phenyl)-1,2,3,5-tetrahydroimidazo[1,2-a]pyridine-3-carboxylic acid]		3.7 µM					1.3 to 4.5 µM	> 60%	71%	31 to 60%	36%
CN1CC(C(=O)O)n2c1c(-c1cccc(C(F)(F)F)c1)c(C(F)(F)c1cccc3ccccc13)cc2=O (stereo not shown) [Compound 135, 7-(difluoro(naphthalen-1-yl)methyl)-1-methyl-5-oxo-8-(3-(trifluoromethyl)phenyl)-1,2,3,5-tetrahydroimidazo[1,2-a]pyridine-3-carboxylic acid]		4 µM					1.3 to 4.5 µM	> 60%	88%	> 60%	67%
CCCN1CC(C(=O)O)n2c(c(-c3cccc(C(F)(F)F)c3)c(Cc3cccc4ccccc34)c(CC(C)C)c2=O)S1(=O)=O (stereo not shown) [Compound 139, 7-isobutyl-8-(naphthalen-1-ylmethyl)-6-oxo-2-propyl-9-(3-(trifluoromethyl)phenyl)-3,4-dihydro-2H,6H-pyrido[1,2-e][1,2,5]thiadiazine-4-carboxylic acid 1,1-dioxide]		2.5 µM					1.3 to 4.5 µM	31 to 60%	51%	31 to 60%	35%
O=C(O)C1CN(Cc2ccccc2)c2c(-c3cccc(C(F)(F)F)c3)c(Cc3cccc4cccnc34)c(Cl)c(=O)n21 (stereo not shown) [Compound 213, 1-benzyl-6-chloro-5-oxo-7-(quinolin-8-ylmethyl)-8-(3-(trifluoromethyl)phenyl)-1,2,3,5-tetrahydroimidazo[1,2-a]pyridine-3-carboxylic acid]		9.1 µM					4.6 to 10 µM	> 60%	72%	31 to 60%	44%
O=C(O)C1CN(Cc2ccccc2)c2c(-c3ccc(Br)cc3)c(Cc3cccc4ccccc34)c(Cl)c(=O)n21 (stereo not shown) [Compound 201, 1-benzyl-8-(4-bromophenyl)-6-chloro-7-(naphthalen-1-ylmethyl)-5-oxo-1,2,3,5-tetrahydroimidazo[1,2-a]pyridine-3-carboxylic acid]		1.8 µM					1.3 to 4.5 µM	> 60%	70%	31 to 60%	35%
Nc1c(Cc2cccc3ccccc23)c(-c2cccc(C(F)(F)F)c2)c2n(c1=O)C(C(=O)O)CN(CCCO)S2(=O)=O (stereo not shown) [Compound 097, 7-amino-2-(3-hydroxypropyl)-8-(naphthalen-1-ylmethyl)-6-oxo-9-(3-(trifluoromethyl)phenyl)-3,4-dihydro-2H,6H-pyrido[1,2-e][1,2,5]thiadiazine-4-carboxylic acid 1,1-dioxide]	> 10 µM	18.4 µM	> 60%	63%	31 to 60%	41%					
O=C(O)c1c(Cc2cccc3ccccc23)c(-c2cccc(C(F)(F)F)c2)c2n(c1=O)C(C(=O)O)CN2Cc1ccccc1 (stereo not shown) [Compound 209, 1-benzyl-7-(naphthalen-1-ylmethyl)-5-oxo-8-(3-(trifluoromethyl)phenyl)-1,2,3,5-tetrahydroimidazo[1,2-a]pyridine-3,6-dicarboxylic acid]		6.6 µM					4.6 to 10 µM	> 60%	81%	> 60%	64%
CN(C)Cc1c(Cc2cccc3ccccc23)c(-c2cccc(C(F)(F)F)c2)c2n(c1=O)C(C(=O)O)CN2Cc1ccccc1 (stereo not shown) [Compound 204, 1-benzyl-6-((dimethylamino)methyl)-7-(naphthalen-1-ylmethyl)-5-oxo-8-(3-(trifluoromethyl)phenyl)-1,2,3,5-tetrahydroimidazo[1,2-a]pyridine-3-carboxylic acid]		1.9 µM					1.3 to 4.5 µM			> 60%	71%
O=C(c1nc(=O)n2c(c1-c1cccc(C(F)(F)F)c1)SCC2C(=O)O)c1cccc2ccccc12 (stereo not shown) [Compound 055, 7-(1-naphthoyl)-5-oxo-8-(3-(trifluoromethyl)phenyl)-2,3-dihydro-5H-thiazolo[3,2-c]pyrimidine-3-carboxylic acid]	> 10 µM	11 µM	> 60%	73%	11 to 31%	17%					
NC(=O)c1c(Cc2cccc3ccccc23)c(-c2cccc(C(F)(F)F)c2)c2n(c1=O)C(C(=O)O)CN(CCCCO)S2(=O)=O (stereo not shown) [Compound 183, 7-carbamoyl-2-(4-hydroxybutyl)-8-(naphthalen-1-ylmethyl)-6-oxo-9-(3-(trifluoromethyl)phenyl)-3,4-dihydro-2H,6H-pyrido[1,2-e][1,2,5]thiadiazine-4-carboxylic acid 1,1-dioxide]		0.8 µM					< 1.3 µM	31 to 60%	32%	11 to 31%	26%
Nc1c(Cc2cccc3ccccc23)c(-c2cccc(C(F)(F)F)c2)c2n(c1=O)C(C(=O)O)CNS2(=O)=O (stereo not shown) [Compound 082, 7-amino-8-(naphthalen-1-ylmethyl)-6-oxo-9-(3-(trifluoromethyl)phenyl)-3,4-dihydro-2H,6H-pyrido[1,2-e][1,2,5]thiadiazine-4-carboxylic acid 1,1-dioxide]	> 10 µM	17.5 µM	31 to 60%	51%	11 to 31%	12%					
